The experiment has as its system 3′,5′-cAMP phosphodiesterase (PDE). As to the kind of experiment: Test for inhibitory activity on PDE (hydrolysis of cAMP to AMP, AMP measured by HPLC). The format is biochemical. The settings on record: reaction time 5 minutes, lipid extract 0.1% in DMSO, theophylline 0.2% in DMSO. As for the experimental part: The principle of the test is based on the hydrolysis of cyclic 3′5′-adenosine monophosphate(cAMP) to adenosine monophosphate (AMP). The formation of AMP is measured by HPLC (high performance liquid chromatography) analysis.
The solutions of the reagents are prepared in 0.05 M Tris-HCl buffer at pH 7.5.
The lipid extracts to be tested are at a concentration of 0.1% in DMSO.
The same experiment is carried out with the reference active product theophylline (H. Kather, A. Scheurer, Effects of different phosphodiesterase inhibitors on the antilipolytic action of insulin in human adipocytes: Horm. Metabol. Res. 19 (1987) 379-381). Likewise, B. B. Fredholm, E. Lindger, Acta pharmacol. et toxicol., 54 (1984), pp. 64-71, “The effect of alkylxanthines and other phosphodiesterase inhibitors on adenosine receptor mediated decrease in lipolysis and cyclic AMP accumulation in rat fat cells” . . . These tests are reference tests for those skilled in the art.
The theophylline tested (SIGMA/Ref. T1633) is at a concentration of 0.2% in DMSO.
The composition of the reaction media is described below. […]
The amount of AMP formed is measured after a reaction time of 5 minutes by calculating the integration area of the AMP peak on the chromatogram produced by the HPLC apparatus (KONTRON S. A.). […]
The amount of AMP due to the action of PDE is measured after a reaction time of 5 minutes. […]

As to `Cn1c(=O)c2[nH]cnc2n(C)c1=O` [Theophylline, theophylline], the “A (%) percentage inhibition of PDE” value worked out at 35%. In addition, the “Integration area of AMP” value (DMSO control 40.80) was determined as 26.52.

For the origin of these results see patent publication US6447782B1, “Lipid extract of the Skeletonema algae” (Parfums Christian Dior, priority 1998, dated 2002).
